Data published in patent US20240299383A1, “IMMUNOMODULATOR COMPOSITION COMPRISING AZVUDINE” (HENAN GENUINE BIOTECH CO., LTD., priority 2023, published 2024).

How the values were obtained:
[1] = system: cytokines (GM-CSF, MCP-1, IFNγ, IFNβ, TNFa, IL2, IL4, IL8, IL10); test: Release level of cytokines in serum and tumor tissue by MSD method, CT26 tumor model; type: in vivo, BALB/c mice; conditions: vs Vehicle
Method: CT26 cells were cultured in RPMI 1640 medium containing 10% fetal bovine serum at 37° C. in a 5% CO2 incubator. The cells were passaged routinely once a week. When the cell saturation reached 80%-90% and the cell number achieved the requirement, the cells were collected, counted and inoculated.
Animals were BALB/c female mice, 8 weeks old and weighing 18.5-22.9 g, which were provided by Shanghai Lingchang Biotechnology Co., Ltd.
0.1 mL (0.3×10^6) of CT26 cells were subcutaneously inoculated into each mouse. When the average tumor volume reached 101 mm^3, the mice were grouped and administered.
• 1) Quick-frozen tissue samples were taken out from the −80° C. refrigerator. • 2) On dry ice, part of the tumor tissue (about 50-100 mg) were cut out, and put into a 2 mL centrifuge tube with steel beads. Then the tube was added with 350 μL of cell lysis solution RIPA (in which 1% protease inhibitor and phosphatase inhibitor had been freshly added). • 3) The tissue was crushed with Tissue grinder at the highest frequency for 5 min. • 4) The tissue lysate was put on ice for 30 min. • 5) The tissue lysate was centrifuged at 12,000 rpm at 4° C. for 10 min. The supernatant was collected and put into a new 1.5 mL centrifuge tube.
• 1) The protein extract was diluted 50 times (2 μL of protein extract+98 μL of RIPA cell lysis buffer). • 2) Standard product and diluted samples were added at 10 μL/well in a 96-well transparent plate. • 3) Preparation of working solution: Reagent A and reagent B were mixed at a ratio of 50:1. 200 μL of the mixture was added to each well. • 4) The 96-well transparent plate was incubated at 37° C. for 30 min. • 5) The OD value at 562 nm was detected by a microplate reader, and then the tumor protein was quantified according to the OD result. • 6) The total protein concentration of the tumor samples was uniformly 2 mg/mL. • 7) The protein was quantified with BCA quantification kit. • 8) According to the quantitation results, the sample protein concentration was uniformly diluted to 2 μg/μL with RIPA lysis solution. • 9) MSD experiment was performed or the diluted samples were stored in a −80° C. refrigerator.
• 1) Preparation of standard product: 250 μL of Diluent 43 diluent was added to the standard product. The mixture was mixed well, and left to stand at room temperature for 15-30 min, and serially diluted by 4 times using Diluent 43 to obtain standard products Nos. 1-7. Diluent 43 was standard product No. 8. • 2) Sample dilution: The samples were diluted with Diluent 43. • 3) Antibody dilution: 100× antibody stock solution was diluted to 1×. • 4) Buffer preparation: 5× buffer was diluted to 1× with deionized water.
• 1) 200 μL of each biotin antibody was added to 300 μL of the designated linker. The resulting mixture was stirred by vortex and incubated at room temperature for 30 min. • 2) 200 μL of stop solution was added. The resulting mixture was stirred by vortex and incubated at room temperature for 30 min. • 3) 600 μL of each U-PLEX Linker-Coupled antibody solution (10×) was mixed into a tube and mixed by vortex. • 4) When the number of binding antibodies was less than 10, the solution was supplemented to 6 ml with stop solution. • 5) 50 μL of multiplex coating solution was added to each well. The plate was sealed with an adhesive board, and shaken at room temperature for 1 h. • 6) The wells were washed 3 times with 1× MSD wash Buffer at 150 μL/well. • 7) Standard product and detection antibody solutions were prepared. • 8) 25 μL of Diluent 43 was added to each well. • 9) 25 μL of prepared standard product, tissue sample or serum sample was added to each well. The plate was sealed with an adhesive board, and incubated at room temperature for 1 h. • 10) The wells were washed 3 times with 1× MSD wash Buffer at 150 μL/well. • 11) 50 μL of detection antibody solution was added to each well. […]

CT26 cells [2] = test: Anti-tumor effect of azvudine in CT26 tumor-bearing mice with normal immune function; type: in vivo, BALB/c mouse; conditions: mice with normal immunity (BALB/c), o.p., QD×2 W
[3] = system: murine colorectal cancer CT-26 cell line; test: Azvudine in combination with PD-1 antibody in murine colorectal cancer CT-26 homograft tumor model; type: in vivo, BALB/c female mouse; conditions: for T/C (%) / TGI(%): tumor volume on the 17th day; for T/Cweight (%): 17th day
Source text: Further, the anti-tumor effect of azvudine in combination with PD-1 antibody on BALB/c female mouse subcutaneously xenografted with murine colorectal cancer CT-26 cell line animal model was studied.

CT26 cells [4] = test: Anti-tumor effect of azvudine in CT-26 tumor-bearing mice with severe immunodeficiency; type: in vivo; conditions: mice with severe immunodeficiency (B-NDG), o.p., QD×2 W
[5] = system: immune cells in CT26 tumor; test: Infiltration of immune cells in tumor by flow cytometry, CT26 tumor model; type: in vivo, BALB/c mice
Method: Tumor tissue was washed once with PBS, and removed of fat. The tumor tissue was quickly cut into small pieces. The chopped tumor tissue was transferred to a tube C containing 5 mL of digestive enzyme mixed solution. The tube C was put in a tissue processor, the tissue fragments were ensured to be submerged in the digestive enzyme, and the program m_imptumor_01_01 was performed. The sample was put in a water bath shaker at 37° C. for 30 min of digestion. After the digestion was completed, the program m_imptumor_01_01 was performed again, and then an appropriate amount of PBS containing 2% fetal bovine serum was added to terminate the digestion. The obtained mixture was filtered with a […] cell mesh to remove residual tissue, and washed with PBS. An appropriate volume of PBS was added according to the amount of cell precipitate to resuspend cells. Then the cells were gently blown evenly, and counted with a hemocytometer. An appropriate amount of cells were taken out and stained with antibodies.
The cells were resuspended with PBS to a concentration of 1×10^6 cells/100 μL. The cell suspension was added to a 96-well V-bottom plate at 100 μL per well. The plate was centrifuged at 450 g at 4° C. for 5 min, and the supernatant solution was discarded. The cells were resuspended with 100 μL of prepared Zombie NIR Live/Dead solution, then cultured at 4° C. in the dark for 30 min, and then washed twice with PBS. Then the cells in each well were resuspended with 50 μL of staining buffer containing Fc receptor inhibitor (1 μL of Fc receptor inhibitor+49 μL of staining buffer), and cultured at 4° C. in the dark for 5 min. Then the cells in each well were resuspended with 50 μL of Brilliant staining buffer containing Pacific Orange CD8, BV605 MHCII, BV650 CD25, BV750 CD45, BV785 Ly6C, AF488 CD11c, AF532 CD11b, PE-DZL594 CD49b, APC Ly6G, APC-Cy5.5 CD4, APC-Cy7 CD13, BV42 CD69 (or an isotype control antibody thereof), and cultured at 4° C. in the dark for 30 min. After staining was completed, the cells were washed twice with 200 μL of staining buffer.
The cells in each well were resuspended with 100 μL of Fixation/Permeabilization, and cultured at 4° C. in the dark for 30 min. After permeabilization was completed, the cells were washed twice with 200 μL of Permeabilization buffer. The cells were resuspended with 100 μL of Permeabilization buffer containing Fc receptor inhibitor, and cultured at 4° C. in the dark for 5 min. Then the cells were directly added with intracellular antibodies PE-Cy7 FoxP3 and PE Ki67 (or an isotype control antibody thereof), and cultured at 4° C. in the dark for 30 min. After staining was completed, the cells were washed twice with 200 μL of Permeabilization buffer, and resuspended with 200 μL of staining buffer. The flow cytometry detection was completed within 24 h.
The flow cytometry data was analyzed using FlowJo, SPSS and Graphpad Prism softwares, specifically including the following: • 1) The proportion of CD45+ cells in living cells of tumor tissue; • 2) The ratio of T, CD4+T, CD8+T, Treg, Myeloid, DC, NK, PMN-MDSC and M-MDSC in CD45+ cells; • 3) The ratio of CD8+T to Treg and the ratio of CD4+Teff to Treg; • 4) The CD69 positive rate and median fluorescence intensity (MFI) in T, CD4+T, and CD8+T cells; • 5) The Ki67 positive rate and median fluorescence intensity (MFI) in T, CD4+T, CD8+ and T cells; • 6) The number of T, CD4+T, CD8+T, Treg, Myeloid, DC, NK, PMN-MDSC, M-MDSC, and white blood cells per 100 mg of tumor tissue;
In this experiment, the CT26 tumor model was established on BALB/c mice, and the mice were treated with azvudine at different doses (0.25 mg/kg, 1 mg/kg). Tumor samples were collected. Then the proportion of each immune cell subset and the activation and proliferation of T, CD4+T and CD8+T were detected by flow cytometry.

B-cell lymphoma A20 = test: Azvudine in combination with PD-1 antibody in B-cell lymphoma A20 tumor-bearing mouse model; type: in vivo
Source text: The effect of azvudine in combination with PD-1 antibody on the B-cell lymphoma A20 tumor-bearing mouse model was further studied.

[6] = tumor tissue, 0.25 mg/kg and 1 mg/kg PO QD × 5D, certain dose-dependency
[7] = 0.25 mg/kg and 1 mg/kg PO QD × 5D, dose-dependent
[8] = after administration, 0.25 and 1 mg/kg, vs control group
[9] = high-dose group (1 mg/kg PO QD × 5D)

[N-]=[N+]=N[C@]1(CO)O[C@@H](n2ccc(N)nc2=O)[C@@H](F)[C@@H]1O [Azvudine]
release of MCP-1 ([1]; serum samples, 0.25 mg/kg PO QD × 5D, 2 h after last administration): significantly reduced | release of IL8 ([1]; serum samples, 0.25 mg/kg and 1 mg/kg PO QD × 5D): significantly reduced | other cytokines ([1]; serum samples, 0.25 mg/kg and 1 mg/kg): no significant change | release of IFN-β [1, 6]: decreased | release of IFNγ [1, 6]: increased | release of TNFα [1, 6]: increased | IR(%) (CT26 cells [2]; 0.25 mpk): 57.5% | TGI(%) (CT26 cells [2]; 0.25 mpk): 63% | IR(%) (CT26 cells [2]; 1 mpk): 84.5% | TGI(%) (CT26 cells [2]; 1 mpk): 94% | Tumor weight (mg) (On the 17th day) ([3]; Azvudine 0.25 mg/kg): 848 ± 210 mg | Tumor volume (mm^3) on the 17th day ([3]; Azvudine 0.25 mg/kg p.o. QD × 18 days): 768 ± 74 mm^3 | Tumor volume (mm^3) on the 17th day ([3]; Azvudine 0.25 mg/kg p.o. QD × 18 days, listed as azvudine): 768 mm^3 | T/C (%) ([3]; Azvudine 0.25 mg/kg p.o.): 39.18% | TGI(%) ([3]; Azvudine 0.25 mg/kg p.o.): 63.26% | T/Cweight (%) ([3]; Azvudine 0.25 mg/kg): 42.52% | Tumor weight (mg) (On the 17th day) ([3]; Azvudine 0.5 mg/kg): 386 ± 256 mg | Tumor volume (mm^3) on the 17th day ([3]; Azvudine 0.5 mg/kg p.o. QD × 18 days): 347 ± 77 mm^3 | Tumor volume (mm^3) on the 17th day ([3]; Azvudine 0.5 mg/kg p.o. QD × 18 days, listed as azvudine): 347 mm^3 | T/C (%) ([3]; Azvudine 0.5 mg/kg p.o.): 17.63% | TGI(%) ([3]; Azvudine 0.5 mg/kg p.o.): 84.85% | T/Cweight (%) ([3]; Azvudine 0.5 mg/kg): 19.37% | IR(%) (CT26 cells [4]; 0.25 mpk): 9.4% | TGI(%) (CT26 cells [4]; 0.25 mpk): 13% | IR(%) (CT26 cells [4]; 1 mpk): 49.2% | TGI(%) (CT26 cells [4]; 1 mpk): 53% | infiltration of immune cells in the tumor ([5]; 0.25 mg/kg and 1 mg/kg PO QD × 5D, vs control group): increased | infiltration of CD8+T cells in the tumor [5, 7]: increase | infiltration of NK cells in the tumor [5, 7]: increase | other cell subsets after administration ([5]; 0.25 and 1 mg/kg, compared with the control group): no significant change | expression level of CD69 in T, CD4+ T, and CD8+ T cells [5, 8]: no significant difference | expression level of Ki67 in T, CD4+ T, and CD8+ T cells [5, 8]: no significant difference | proportion of M-MDSC cells [5, 9]: significant reduction | proportion of PMN-MDSC cells [5, 9]: significant reduction | proportion of myeloid cells [5, 9]: significantly reduced | ratio of CD4Teff/Treg [5, 9]: significantly increased | ratio of CD8T/Treg [5, 9]: significantly increased | CD8T/Treg and CD4Teff/Treg ratios and proportion of myeloid, M-MDSC, PMN-MDSC cells ([5]; low-dose group (0.25 mg/kg PO QD × 5D), compared with high-dose group): same trend | IR(%) (B-cell lymphoma A20; Azvudine single drug, 1 mpk): 70.8% | TGI(%) (B-cell lymphoma A20; Azvudine single drug, 1 mpk): 70% | inhibitory activity on the B-cell lymphoma A20 tumor-bearing mice (B-cell lymphoma A20; administered alone): certain inhibitory activity | TGI (B-cell lymphoma A20; azvudine 2 mg/kg): 88%
